Where no end group is shown, it is not given here. [ ]: non-standard residue; d: D form.

Assay [1] has as its target T1, recombinant CAK (CDK7, cyclin H, MAT1) (Homo sapiens, UniProt P50613).
T1 construct: made in house; host or cells: Sf9 insect cells (baculovirus co-infection)
As to the kind of experiment: Kinase reaction: phosphorylation of the CTD by recombinant CAK. In kind it is biochemical. The protocol:
Recombinant baculoviruses encoding human CDK7 (Fisher et al., Cell 78:713-724 (1994)), MAT1 (Fisher et al., Cell 83:47-57 (1995)), and an N-terminally 6-histidine tagged version of cyclin H (Kim et al., Cell 77:599-608 (1994)) were constructed as described. 4×10^9 Sf9 insect cells were co-infected with all three baculoviruses (multiplicity of infection for each virus: 5 pfu/cell), incubated 2 days at 28° C., and harvested by centrifugation. Cells were resuspended in 120 ml buffer A (20 mM Na phosphate, 25 mM NaCl, 1 mM PMSF, 1 Ag/ml leupeptin, 2 μg/ml aprotinin, 1 mM DTT (pH 7.4). NaCl concentration was raised to 300 mM and the lysate was clarified by centrifugation and loaded over tandem 5-ml Pharmacia HiTrap Chelating columns loaded with CoCl2 and preequilibrated with buffer B (300 mM NaCl, 20 mM Na phosphate, 10% glycerol (pH 7.2)). The column was washed with buffer B+1 mM DTT and eluted with a linear gradient of 0-200 mM imidazole in buffer B+1 mM DTT. Fractions containing the CAK trimer were pooled, diluted 4-fold in buffer C (20 mM Hepes-NaOH, 1 mM EDTA, 10% glycerol, 1 mM DTT (pH 7.4)), and loaded on a 5 ml Pharmacia HiTrap Q column pre-equilibrated with buffer C. The column was washed with buffer C and eluted with a linear gradient of 25-1000 mM NaCl in buffer C. […]

In assay [2] the test system is Tat trans-activation of the HIV LTR. As to the kind of experiment: In vitro run-off transcription from the wild-type HIV LTR. In kind it is biochemical. As to conditions: increasing concentrations / concentration not stated. The method, then:
The ability of molecules to inhibit Tat trans-activation can be assessed using a variety of in vitro and in vivo assays. For example, Tat trans-activation can be assessed using in vitro run-off transcription reactions with transcription extracts (see, e.g., Current Protocols in Molecular Biology (Ausubel et al., eds., 1997)). In such an assay, nuclear transcription extracts are prepared from cultured mammalian cells according to standard procedures (see, e.g., Dignam et al., Nuc. Acids. Res. 11: 1475-1489 (1983)). Recombinant Tat protein is isolated according to standard procedures and added to the nuclear transcription extract along with the other components of the transcription reaction such as nucleotides (see, e.g., Cujec et al., supra; Example V). The reaction is also supplied with HIV promoter DNA sequences operably linked to a structural gene.
Run-off transcription reactions from the wild-type HIV LTR and AdMLT promoters linearized with NcoI and HindIII respectively, were carried out as described (Okamoto et al., Proc. Natl. Acad. Sci. USA 93:11575-11579 (1996); Cujec et al., Mol. Cell. Biol. 17:1817-1823 (1997)). […]

Assay [3] concerns Tat trans-activation of the HIV LTR in COS-7 cells. As to the kind of experiment: Peptide electroporation into COS-7 cells with pHIVΔKBCAT reporter, RNase protection assay. The class given is cell-based.
A further assay concerns DHFR promoter. The assay can be described thus: In vitro transcription from the DHFR promoter (G-less cassette). The class given is biochemical. As to conditions: concentration not given. The protocol: Run-off transcription reactions from the wild-type HIV LTR and AdMLT promoters linearized with NcoI and HindIII respectively, were carried out as described (Okamoto et al., Proc. Natl. Acad. Sci. USA 93:11575-11579 (1996); Cujec et al., Mol. Cell. Biol. 17:1817-1823 (1997)). Transcription reactions containing the DHFR promoter (500 ng) fused to a G-less cassette (linearized at Nco I) were supplemented with 3 mM (NH4)2 SO4, 2% PEG 8000, 50 units of T1 RNase (Boehringer-Mannheim), 500 U of RNase inhibitor (Boehringer-Mannheim) and contained 5 μM instead of 40 μM of unlabeled UTP. Phosphocreatine, poly (d)I-(d)C, and poly(rI-rC) were omitted from the reactions.

T1 sequence (P51946 whole entry): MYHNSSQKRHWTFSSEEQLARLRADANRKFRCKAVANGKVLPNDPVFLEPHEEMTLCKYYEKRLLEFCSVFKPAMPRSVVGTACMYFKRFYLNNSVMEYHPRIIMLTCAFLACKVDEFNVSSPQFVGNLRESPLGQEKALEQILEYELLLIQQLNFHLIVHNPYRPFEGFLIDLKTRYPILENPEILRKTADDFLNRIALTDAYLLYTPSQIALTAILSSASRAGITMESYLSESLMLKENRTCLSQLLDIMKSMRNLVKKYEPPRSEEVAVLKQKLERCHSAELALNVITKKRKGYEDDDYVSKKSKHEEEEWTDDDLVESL
T1 sequence (P50613 2-346): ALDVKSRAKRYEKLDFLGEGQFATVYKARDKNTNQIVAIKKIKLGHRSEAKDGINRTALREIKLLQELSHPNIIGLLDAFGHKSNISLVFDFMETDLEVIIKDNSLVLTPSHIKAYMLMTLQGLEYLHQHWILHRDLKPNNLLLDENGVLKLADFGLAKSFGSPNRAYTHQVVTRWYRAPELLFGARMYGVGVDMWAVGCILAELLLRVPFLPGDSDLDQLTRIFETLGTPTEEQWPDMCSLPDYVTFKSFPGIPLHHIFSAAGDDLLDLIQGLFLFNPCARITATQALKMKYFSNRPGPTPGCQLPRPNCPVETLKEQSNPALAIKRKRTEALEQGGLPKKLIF
T1 sequence (P51949 whole entry, further chain): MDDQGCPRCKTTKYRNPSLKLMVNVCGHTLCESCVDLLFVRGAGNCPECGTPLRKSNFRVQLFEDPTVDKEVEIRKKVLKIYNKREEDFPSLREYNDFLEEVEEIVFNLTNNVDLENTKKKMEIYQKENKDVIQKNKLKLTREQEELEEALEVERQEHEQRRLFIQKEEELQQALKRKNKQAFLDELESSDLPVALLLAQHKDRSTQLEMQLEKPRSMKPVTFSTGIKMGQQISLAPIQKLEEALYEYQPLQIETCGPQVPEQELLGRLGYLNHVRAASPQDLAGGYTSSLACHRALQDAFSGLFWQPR

For the substance ARAFGVPVRTYAHEVVTLWYRA [mC2p], in assay [1], the IC50 (commonly the concentration that inhibits the measured activity by half) turned out to be 1.3 µM.
Take “HARTVGVWYRAEYARFVTPaVV (HARTVGVWYRAEYARFVTP[dA]VV) [rC2p, control]”: the “effect on the kinase activity of CAK” value in assay [1] (concentration not given) is “no effect”. Moreover, the Tat trans-activation entry in assay [2] is “did not affect”. In assay [3] (increasing concentrations, data not presented), the “transcription in the absence of Tat” value is given as “no effect”. Besides, the “ratio of long to short transcripts” value in assay [3] (regardless of peptide concentration) was “remained the same”. Moreover, the “transcription from the DHFR promoter” value in the assay on DHFR promoter is reported as “no effect”.

The record behind these values is patent US5994055A, “HIV trans-activator Tat binding to CDK7 and activation of CTD phosphorylation” (priority 1997, dated 1999).
